The results in this text go back to EP0498941A2, “Peptide skeletal muscle relaxants” (BOC Health Care, Inc., priority 1991, dated 1992).

This data set has as its system neuromuscular junction. The data set is described as follows: Rabbit paw twitch analysis (neuromuscular blocking activity). Format: in vivo, Male New Zealand white rabbits. From the text:
In a large series of similar relaxants, the rabbit dose is typically 125% of that in mice. The mechanism of action was also confirmed in this test by observing train-of-four and tetanus fade, post-tetanic potentiation of single twitches and administration of the anticholinesterase drug neostigmine which reverses the relaxation. Reversibility, rapid onset and short duration are important factors to the anesthesiologist.
The following is a brief description of the methodologies used in rabbits to describe neuromuscular blocking activity of the subject compounds. A more detailed description of these methods is presented in "Microcomputer Use in Measuring Onset, Duration, and Recovery from Non-Depolarizing Skeletal Muscle Relaxants in Rabbits", P.D. Thut et al., Drug development Research 5:182, 1985.
Male New Zealand white rabbits weighing between 2.5 and 3.4 kg were anesthetized with pentobarbital (30 mg/kg) and placed on their backs upon a 40°C water filled temperature regulation pad. Following tracheostomy, the lungs were mechanically ventilated at 28 breaths per minute with room air, using an open system delivering 200 ml/stroke. This ventilation maintained pCO₂ at 38 […] and pO₂ at 85 mmHg. Direct arterial blood pressure was measured from the right common carotid artery. The test compounds were administered through a cannula placed in the marginal ear vein. Each foreleg was taped to a cushioned plate held in a femur clamp attached to the spinal board rack. The left centeral digit of each paw was connected to a force displacement transducer for measurement of muscle tension. Nerve stimulation was provided by pairs of pin electrodes placed on both sides of the ulnar nerve at the elbow of both forearms. The right ulnar nerve was stimulated at 1 Hz, 1 pps for .5 msec duration. The left ulnar nerve was similarly stimulated, every 15 seconds, with addition of interspersed trains-of-four and tetanizing stimuli. The parameters reported in Table II are: potency (ED90), which is the dose required to depress twitch tension to 10% of its control value; onset (T85%), which is the time from injection until 85% of the maximal drug effect is achieved; duration, which is the time from injection until the train-of-four has recovered to 75%; blood pressure (BP), which is the percentage change of pre-drug blood pressure; and heart rate (HR), which is the percentage change from pre-drug heart rate.

As for `CC(=O)O[C@H]1C[C@@H]2CC[C@@H]3[C@H](CC[C@@]4(C)[C@H]3C[C@H]([N+]3(C)CCCCC3)[C@@H]4OC(C)=O)[C@@]2(C)C[C@@H]1N1CCCCC1` [vecuronium], where the note is “rabbit, in vivo”, the BP is 1.10 % change, the Duration amounted to 16.80 min, the ED9O was 0.02 mg/kg and the HR result was “- 9.90 % change”. The T85% (rabbit, in vivo) was 97.30 s.

As for `COc1ccc(CC2c3cc(OC)c(OC)cc3CC[N+]2(C)CCC(=O)OCCCCCOC(=O)CC[N+]2(C)CCc3cc(OC)c(OC)cc3C2Cc2ccc(OC)c(OC)c2)cc1OC` (stereo not shown) [atracurium], where the note is “Oryctolagus cuniculus, iv, potency: dose required to depress twitch tension to 10% of its control value, pentobarbital-anesthetized rabbits, marginal ear vein”, the ED90 was found to be 0.05 mg/kg. Moreover, the T85% (onset: time from injection until 85% of the maximal drug effect is achieved, equi-efficacious dose) amounted to 126.90 s. Further, where the note is “time from injection until the train-of-four has recovered to 75%, equi-efficacious dose”, the Duration was 14.30 min.

Consider `CC(=O)O[C@H]1C[C@@H]2CC[C@@H]3[C@H](CC[C@@]4(C)[C@H]3C[C@H]([N+]3(C)CCCCC3)[C@@H]4OC(C)=O)[C@@]2(C)C[C@@H]1[N+]1(C)CCCCC1` [pancuronium], for which, for the setting “rabbit, in vivo”, the BP was 2.70 % change, the Duration was determined as 35.50 min, the ED9O was determined as 0.02 mg/kg and the HR stood at 0.00 % change. Also, the T85% (rabbit, in vivo) is 147.50 s.
